The values below come from ChEMBL document CHEMBL5346892, “Design and synthesis of benzochromene derivatives as AcrB inhibitors for the reversal of bacterial multidrug resistance” (Eur J Med Chem, 2023).

Each structure is given as a SMILES string. Calls of active or inactive are those of the source. No cut-off for these calls is given here. Bounds are passed on as bounds.

For series [1], the system named is Escherichia coli. In words: Synergistic antibacterial activity against wild type Escherichia coli BW25113 assessed as erythromycin MIC at 16 microg/ml incubated for 18 hrs by broth dilution assay. The conditions noted are these: dose 16 µg/ml. The format is functional. For orientation: Dilution methods test growth across graded concentrations, often in twofold steps.

Series [2] deals with Escherichia coli. In words: Synergistic antibacterial activity against wild type Escherichia coli BW25113 assessed as erythromycin MIC at 32 microg/ml incubated for 18 hrs by broth dilution assay. The format is functional. Particulars: dose 32 µg/ml.
The test system of series [3] is Escherichia coli. In words: Synergistic antibacterial activity against wild type Escherichia coli BW25113 assessed as erythromycin MIC at 64 microg/ml incubated for 18 hrs by broth dilution assay. The format is functional. Particulars: dose 64 µg/ml.
In series [4] the test system is Escherichia coli. In words: Synergistic antibacterial activity against wild type Escherichia coli BW25113 assessed as erythromycin MIC at 128 microg/ml incubated for 18 hrs by broth dilution assay. The format is functional. Particulars: dose 128 µg/ml.
In series [5] the test system is Escherichia coli. The experiment in a line: Synergistic antibacterial activity against wild type Escherichia coli BW25113 assessed as levofloxacin MIC at 8 microg/ml incubated for 18 hrs by broth dilution assay. The format is functional. The conditions noted are these: dose 8 µg/ml.
Series [6] concerns Escherichia coli. In words: Synergistic antibacterial activity against wild type Escherichia coli BW25113 assessed as levofloxacin MIC at 32 microg/ml incubated for 18 hrs by broth dilution assay. The format is functional. Particulars: dose 32 µg/ml.
Series [7] concerns Escherichia coli. In words: Synergistic antibacterial activity against wild type Escherichia coli BW25113 assessed as levofloxacin MIC at 128 microg/ml incubated for 18 hrs by broth dilution assay. The format is functional. Particulars: dose 128 µg/ml.
The subject of series [8] is Escherichia coli. The experiment in a line: Synergistic antibacterial activity against wild type Escherichia coli BW25113 assessed as minocycline MIC at 8 microg/ml incubated for 18 hrs by broth dilution assay. The format is functional. Particulars: dose 8 µg/ml.
The subject of series [9] is Escherichia coli. In words: Synergistic antibacterial activity against wild type Escherichia coli BW25113 assessed as minocycline MIC at 16 microg/ml incubated for 18 hrs by broth dilution assay. The format is functional. Particulars: dose 16 µg/ml.
Series [10] concerns Escherichia coli. The experiment in a line: Synergistic antibacterial activity against wild type Escherichia coli BW25113 assessed as minocycline MIC at 32 microg/ml incubated for 18 hrs by broth dilution assay. The format is functional. The conditions noted are these: dose 32 µg/ml.
The test system of series [11] is Escherichia coli. The experiment in a line: Synergistic antibacterial activity against wild type Escherichia coli BW25113 assessed as minocycline MIC at 128 microg/ml incubated for 18 hrs by broth dilution assay. The format is functional. The conditions noted are these: dose 128 µg/ml.
In series [12] the test system is Escherichia coli. The experiment in a line: Synergistic antibacterial activity against wild type Escherichia coli BW25113 assessed as erythromycin MIC at 8 microg/ml incubated for 18 hrs in presence of colistin by broth dilution assay. The format is functional. Particulars: dose 8 µg/ml.
Series [13] relates to Escherichia coli. The experiment in a line: Synergistic antibacterial activity against wild type Escherichia coli BW25113 assessed as levofloxacin MIC at 8 microg/ml incubated for 18 hrs in presence of colistin by broth dilution assay. The format is functional. The conditions noted are these: dose 8 µg/ml.
Series [14] relates to Escherichia coli. The experiment in a line: Synergistic antibacterial activity against wild type Escherichia coli BW25113 assessed as levofloxacin MIC at 32 microg/ml incubated for 18 hrs in presence of colistin by broth dilution assay. The conditions noted are these: dose 32 µg/ml. The format is functional.
For series [15], the system named is Escherichia coli. In words: Synergistic antibacterial activity against wild type Escherichia coli BW25113 assessed as levofloxacin MIC at 64 microg/ml incubated for 18 hrs in presence of colistin by broth dilution assay. The format is functional. The conditions noted are these: dose 64 µg/ml.
Series [16] relates to Escherichia coli. In words: Synergistic antibacterial activity against wild type Escherichia coli BW25113 assessed as minocycline MIC at 8 microg/ml incubated for 18 hrs in presence of colistin by broth dilution assay. The format is functional. The conditions noted are these: dose 8 µg/ml.
Series [17] has as its target T1, Multidrug efflux pump subunit AcrB (Escherichia coli (strain K12)) (UniProt P31224).
T1 sequence (whole entry): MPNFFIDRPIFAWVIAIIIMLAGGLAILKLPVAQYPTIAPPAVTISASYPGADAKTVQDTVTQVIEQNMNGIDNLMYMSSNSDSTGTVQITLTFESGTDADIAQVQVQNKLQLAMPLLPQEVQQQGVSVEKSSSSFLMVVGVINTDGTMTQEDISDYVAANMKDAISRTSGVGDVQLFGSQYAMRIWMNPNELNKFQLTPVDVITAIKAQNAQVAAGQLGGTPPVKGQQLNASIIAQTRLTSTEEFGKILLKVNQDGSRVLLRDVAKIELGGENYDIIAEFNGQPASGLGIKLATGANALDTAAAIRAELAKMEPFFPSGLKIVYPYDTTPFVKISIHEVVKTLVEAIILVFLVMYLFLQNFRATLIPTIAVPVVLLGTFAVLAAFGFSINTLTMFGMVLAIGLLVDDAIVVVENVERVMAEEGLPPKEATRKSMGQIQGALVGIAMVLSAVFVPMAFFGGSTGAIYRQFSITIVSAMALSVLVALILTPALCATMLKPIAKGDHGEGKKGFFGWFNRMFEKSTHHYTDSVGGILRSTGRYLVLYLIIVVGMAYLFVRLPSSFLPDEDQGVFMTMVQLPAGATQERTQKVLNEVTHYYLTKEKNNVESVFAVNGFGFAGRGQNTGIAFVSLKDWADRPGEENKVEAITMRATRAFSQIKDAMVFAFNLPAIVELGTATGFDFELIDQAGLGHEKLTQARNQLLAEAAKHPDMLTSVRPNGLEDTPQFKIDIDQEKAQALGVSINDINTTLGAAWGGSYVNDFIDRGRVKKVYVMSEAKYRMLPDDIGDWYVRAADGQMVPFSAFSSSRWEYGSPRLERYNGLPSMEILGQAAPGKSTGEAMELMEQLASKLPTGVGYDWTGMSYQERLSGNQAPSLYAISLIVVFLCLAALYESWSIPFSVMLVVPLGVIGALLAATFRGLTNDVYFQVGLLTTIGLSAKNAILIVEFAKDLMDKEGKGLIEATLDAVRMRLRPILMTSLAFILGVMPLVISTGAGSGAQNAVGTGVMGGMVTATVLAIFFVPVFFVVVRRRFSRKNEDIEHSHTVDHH
In words: Inhibition of Escherichia coli BW25113 AcrB assessed as inhibition of nile red efflux at 50 uM incubated for 15 mins.

For series [18], the system named is Cell membrane. In words: Induction of inner membrane permeabilization in Escherichia coli BW25113 assessed as increase in fluorescence intensity at 64 microg/ml incubated for 10 mins by DiOC2 dye based fluorimeter analysis. Particulars: dose 64.0 µg/ml. The format is subcellular.
A short description of series [19]: Hemolytic activity in mouse RBC assessed as hemolysis at 4 to 256 microg/ml incubated for 1 hr by microplate reader analysis. Particulars: mouse red blood cells (erythrocytes), at 4 to 256 µg/mL, dose 4-256 µg/ml, read-out: Activity. The format is toxicity, cell-based, Erythrocyte.
A short description of series [20]: Toxicity in Caenorhabditis elegans assessed as survival rate at 128 microg/ml measured after 72 hrs by light microscopic analysis. Particulars: at 128 µg/mL.
Series [21] concerns Escherichia coli. The experiment in a line: Synergistic antibacterial activity against wild type Escherichia coli BW25113 assessed as erythromycin MIC at 16 microg/ml incubated for 18 hrs in presence of colistin by broth dilution assay. The format is functional. Particulars: dose 16 µg/ml.
In series [22] the test system is Escherichia coli. The experiment in a line: Synergistic antibacterial activity against wild type Escherichia coli BW25113 assessed as erythromycin MIC at 32 microg/ml incubated for 18 hrs in presence of colistin by broth dilution assay. The format is functional. The conditions noted are these: dose 32 µg/ml.
In series [23] the test system is Escherichia coli. The experiment in a line: Synergistic antibacterial activity against wild type Escherichia coli BW25113 assessed as minocycline MIC at 16 microg/ml incubated for 18 hrs in presence of colistin by broth dilution assay. The format is functional. The conditions noted are these: dose 16 µg/ml.
Series [24] has as its system Escherichia coli. The experiment in a line: Synergistic antibacterial activity against wild type Escherichia coli BW25113 assessed as minocycline MIC at 32 microg/ml incubated for 18 hrs in presence of colistin by broth dilution assay. Particulars: dose 32 µg/ml. The format is functional.
In series [25] the test system is Escherichia coli. In words: Synergistic antibacterial activity against wild type Escherichia coli BW25113 assessed as minocycline MIC at 64 microg/ml incubated for 18 hrs in presence of colistin by broth dilution assay. The format is functional. Particulars: dose 64 µg/ml.

As a reminder, the MIC is the least concentration at which growth counts as inhibited. With `CC1(C)CCc2c(C(=O)N3CCOCC3)cc3c(OCCN4CCN(c5ccccc5)CC4)cccc3c2O1`, the MIC worked out at 32 mg/L in series [1]; 32 mg/L in series [2]; 32 mg/L in [3]; 16 mg/L in [4]; 0.032 mg/L in series [5]; 0.016 mg/L in [6]. Further, the MIC in [7] came out at 0.016 mg/L; in series [8] it was 2 mg/L; in series [9], 2 mg/L; in series [10], 2 mg/L; in series [11], 1 mg/L; in series [12], 4 mg/L. Further, the MIC in series [13] turned out to be 0.032 mg/L; in series [14], 0.032 mg/L; in series [15], 0.032 mg/L; in [16], 0.5 mg/L. For the same compound, the inhibition result in series [17] is “Active”. In [18], the result was inactive. For the same compound, the hemolysis at 1 h in series [19] is below 5%. Besides, the survival at 72 h, 128 microg/ml in series [20] is 90%.
`COc1ccc(OCCCOc2cccc3c4c(c(C(=O)N5CCOCC5)cc23)CCC(C)(C)O4)cc1`: the MIC was 32 mg/L in series [1]; 32 mg/L in series [2]; 16 mg/L in [3]; 8 mg/L in series [4]; 0.032 mg/L in series [5]; 0.032 mg/L in series [6]. In addition, the MIC in series [7] amounted to 0.032 mg/L; in [8], 2 mg/L; in series [9], 2 mg/L; in [10], 2 mg/L; in series [11], 1 mg/L; in series [12], 16 mg/L. The MIC turned out to be 16 mg/L in series [21]; 16 mg/L in series [22]; 0.016 mg/L in series [13]; 0.032 mg/L in [14]; 0.032 mg/L in [15]; 0.5 mg/L in series [16]. Besides, the MIC came out at 0.5 mg/L in [23], 0.5 mg/L in series [24] and 0.25 mg/L in series [25]. Also, in series [17], the inhibition entry was “Active”. For the same compound, in series [18], the outcome was inactive. In addition, in series [19], the hemolysis at 1 h is below 5%. For the same compound, the survival at 72 h, 128 microg/ml in [20] was 90%.
As for `CC1(C)CCc2c(C(=O)N3CCOCC3)cc3c(OCCCOc4cccc(C(=O)O)c4)cccc3c2O1`, the MIC in series [1] is 32 mg/L; in series [2] it was 32 mg/L; in series [3], 16 mg/L; in series [4] it was 16 mg/L; in series [5], 0.016 mg/L; in series [6] it was 0.016 mg/L. Also, the MIC in series [7] turned out to be 0.016 mg/L; in series [9] it was 2 mg/L; in [10] it was 1 mg/L; in series [11], 0.5 mg/L; in series [12], 8 mg/L; in series [21], 4 mg/L. The MIC in series [22] came out at 4 mg/L; in series [13], 0.016 mg/L; in series [14], 0.016 mg/L; in series [15], 0.008 mg/L; in [16], 0.5 mg/L; in series [23], 0.5 mg/L. Also, the MIC in series [24] and in series [25] was 0.5 mg/L in each case. For the same compound, the inhibition result in series [17] is “Active”. Also, in series [19], the hemolysis at 1 h was below 5%. Also, in series [20], the survival at 72 h, 128 microg/ml turned out to be 90%.
`CC1(C)CCc2c(C(=O)N3CCOCC3)cc3c(OCCSc4ccc([N+](=O)[O-])cc4)cccc3c2O1`: the MIC amounted to 16 mg/L in series [1]; 16 mg/L in series [2]; 16 mg/L in series [3]; 16 mg/L in [4]; 0.016 mg/L in series [5]; 0.016 mg/L in [6]. In addition, the MIC in series [7] worked out at 0.016 mg/L; in series [8], 2 mg/L; in series [9], 2 mg/L; in [10], 2 mg/L; in [11], 2 mg/L; in series [12], 8 mg/L. Besides, the MIC was 8 mg/L in series [21]; 4 mg/L in series [22]; 0.032 mg/L in [13]; 0.032 mg/L in series [14]; 0.032 mg/L in [15]; 1 mg/L in series [16]. For the same compound, the MIC in series [23] is 1 mg/L; in series [24], 1 mg/L; in series [25] it was 0.5 mg/L. Also, the result in [18] was inactive. The hemolysis at 1 h in [19] is below 5%. Besides, in [20], the survival at 72 h, 128 microg/ml stood at 90%.
